{
  "source": "patent US20210002231A1",
  "about": "(Centre National de la Recherche Scientifique, priority 2018, published 2021)",
  "key": {"[1]": {"molecular_target": "T1, GPR103 (Homo sapiens, UniProt Q96P65)", "T1 construct": "expressed in transfected cells; host or cells: CHO cells (gift from M. Parmentier, IRIBHM, Brussels), membranes", "T1 sequence (Q96P65 1-431)": "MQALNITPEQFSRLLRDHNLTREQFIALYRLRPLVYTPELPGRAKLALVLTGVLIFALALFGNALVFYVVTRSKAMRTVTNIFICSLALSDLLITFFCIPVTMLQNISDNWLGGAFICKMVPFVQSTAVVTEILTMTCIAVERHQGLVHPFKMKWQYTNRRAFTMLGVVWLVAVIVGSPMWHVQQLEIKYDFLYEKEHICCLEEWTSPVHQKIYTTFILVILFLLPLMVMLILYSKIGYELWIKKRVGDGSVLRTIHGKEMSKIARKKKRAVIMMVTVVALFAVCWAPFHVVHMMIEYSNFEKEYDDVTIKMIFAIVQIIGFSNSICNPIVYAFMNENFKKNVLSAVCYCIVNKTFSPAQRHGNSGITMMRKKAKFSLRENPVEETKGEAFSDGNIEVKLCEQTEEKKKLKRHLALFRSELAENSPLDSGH", "assay": "Radioligand competition binding with [125I]-43RFa"}, "[2]": {"molecular_target": "T2, GPR10 (Homo sapiens, UniProt P49683)", "T2 construct": "expressed in transfected cells; host or cells: CHO cells (gift from M. Parmentier, IRIBHM, Brussels), membranes", "T2 sequence (P49683 1-370)": "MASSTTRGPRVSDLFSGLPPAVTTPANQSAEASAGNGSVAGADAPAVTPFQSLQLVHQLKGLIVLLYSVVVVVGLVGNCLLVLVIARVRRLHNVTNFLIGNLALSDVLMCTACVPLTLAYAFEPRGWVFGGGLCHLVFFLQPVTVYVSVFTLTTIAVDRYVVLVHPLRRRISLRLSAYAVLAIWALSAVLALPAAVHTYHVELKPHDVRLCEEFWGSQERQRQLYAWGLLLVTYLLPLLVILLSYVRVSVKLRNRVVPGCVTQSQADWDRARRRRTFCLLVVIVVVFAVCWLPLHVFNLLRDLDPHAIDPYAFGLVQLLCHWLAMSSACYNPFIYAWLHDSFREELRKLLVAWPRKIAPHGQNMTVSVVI", "assay": "Radioligand competition binding with [3H]-PrRP-20"}, "[3]": {"molecular_target": "T3, human NOPr (Homo sapiens, UniProt P41146)", "T3 construct": "expressed in transfected cells", "T3 sequence (P41146 whole entry)": "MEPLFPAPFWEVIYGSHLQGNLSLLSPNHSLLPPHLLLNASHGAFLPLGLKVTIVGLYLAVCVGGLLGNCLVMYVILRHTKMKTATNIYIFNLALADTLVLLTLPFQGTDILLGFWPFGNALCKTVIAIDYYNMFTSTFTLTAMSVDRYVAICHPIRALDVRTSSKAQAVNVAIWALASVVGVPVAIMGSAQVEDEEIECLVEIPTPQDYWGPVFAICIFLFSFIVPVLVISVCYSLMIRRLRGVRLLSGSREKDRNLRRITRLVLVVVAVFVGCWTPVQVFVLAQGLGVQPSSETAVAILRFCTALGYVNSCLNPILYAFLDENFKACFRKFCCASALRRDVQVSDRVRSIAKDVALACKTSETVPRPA", "assay": "Radioligand competition binding with [3H]-nociceptin"}, "[4]": {"system": "C57BL/6N mice", "assay": "Hyperalgesia and analgesic tolerance upon chronic sc. treatment, tail immersion test", "assay_type": "in vivo", "conditions": "for antinociceptive effect on day 1: equianalgesic sc. doses, 25 s cut-off; for basal thermal nociceptive threshold (development of hyperalgesia): chronic daily sc., compared with saline", "method": "Animal experiments were performed on adult male C57BL/6N male mice (25-30 g weight; Janvier labs, France). Animals were housed in groups of three to five per cage and kept under a 12 h/12 h light/dark cycle at 21±1° C. with ad libitum access to food and water. Experiments were performed during the light-on phase of the cycle. Mice were habituated to the testing room and equipment before starting behavioral experiments. Control and treated group assignment as well as pain response measurements were performed in a blinded manner. Every animal was used only once. 1.11. Drug administration All drugs were dissolved in physiological saline (0.9%) and administered subcutaneously (sc.) at 10 mL/kg (volume/body weight). […] Assessment of thermal nociception The nociceptive sensitivity to thermal stimulation was determined in mice using the warm-water tail immersion tests as previously described [12; 49]. In the tail immersion test, C57BN/6N mice were restrained in a grid pocket and their tail was immersed in a thermostated water bath. The latency (in sec) for tail withdrawal from hot water (47.5±0.5° C.) was taken as a measure of the nociceptive response. In the absence of any nociceptive reaction, a cut-off value of 25 sec was set to avoid tissue damage. Experiments for chronic drug effects were designed according to a protocol enabling the evaluation of time-course of opioid-induced hyperalgesia and development of analgesic tolerance using the tail immersion test. […] For analgesic tolerance evaluation, nociceptive latencies were measured on day 1 and 8 according to the acute effect protocol. For the assessment of hyperalgesia, basal nociceptive latencies were measured every day, 30 min before drug or saline injection. Responses are expressed as latency times (in sec) of tail withdrawal from the hot water."}, "[5]": {"system": "C57BL/6N mice", "assay": "CFA-induced inflammatory pain model", "assay_type": "in vivo", "conditions": "for CFA-induced thermal hypersensitivity (basal threshold): daily sc., measured before injection", "method": "Tail inflammation in C57BL/6N mice was induced by injecting subcutaneously 20 μl of a Complete Freund's Adjuvant (CFA) solution or saline (control mice) 3 cm from the tip of the tail. Twenty-four hours after CFA injection (day 1), inflammation was confirmed by measuring thermal and mechanical hyperalgesia. Mice were then treated sc. daily for 7 days (from day 1 to day 7) with the test compounds or saline (control). Nociceptive threshold to heat stimulation was measured by tail immersion test (47.5±0.5° C.) and tail pressure test each hour for 5 h after the first drug administration in order to determine the peak of the anti-hyperalgesic response. During the following days, basal nociceptive thresholds were evaluated before injection and 2 h after drug injection. Antinociceptive response was calculated as percent of Maximum Possible Effect (% MPE) according to the formula=[(test latency−CFA/saline mice latency)/(cut-off time−CFA/saline mice latency)]×100. In order to limit behavioral sensitization, thermal nociception was evaluated on days 1-2-4-6 and mechanical nociception on days 1-3-5-7."}, "[6]": {"molecular_target": "human MOPr (Homo sapiens, UniProt P35372)", "sequence (P35372 whole entry)": "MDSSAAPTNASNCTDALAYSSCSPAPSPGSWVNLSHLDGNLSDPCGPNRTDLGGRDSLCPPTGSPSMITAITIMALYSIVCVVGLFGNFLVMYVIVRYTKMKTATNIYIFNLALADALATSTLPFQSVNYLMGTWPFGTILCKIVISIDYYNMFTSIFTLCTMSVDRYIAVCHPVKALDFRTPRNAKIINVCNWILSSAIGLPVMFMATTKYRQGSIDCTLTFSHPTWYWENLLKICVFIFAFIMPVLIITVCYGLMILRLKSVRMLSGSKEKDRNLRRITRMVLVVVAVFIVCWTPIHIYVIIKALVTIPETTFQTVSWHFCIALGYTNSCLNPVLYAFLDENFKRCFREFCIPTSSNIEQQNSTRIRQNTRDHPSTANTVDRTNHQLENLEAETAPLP", "assay": "cell-based", "assay_type": "cell-based", "set-up": "expressed in transfected cells; HEK293-Glo20F cells (cAMP)", "conditions": "for MOPr-induced G protein activation: in words; for Emax: read-out: MOPr (cAMP) Emax", "outline": "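GTPγS binding used membranes of CHO cells expressing NPFF1R or NPFF2R, stimulated by RF-amide peptides or test compounds. cAMP was measured in HEK293 cells stably carrying Glosensor-20F, with or without stable expression of an opioid receptor or NPFF1R, in the presence of 1 mM D-luciferin.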"}, "[7]": {"molecular_target": "T4, human KOPr (Homo sapiens, UniProt P41145)", "T4 construct": "expressed in transfected cells; HEK293-Glo20F cells (cAMP)", "T4 sequence (P41145 whole entry)": "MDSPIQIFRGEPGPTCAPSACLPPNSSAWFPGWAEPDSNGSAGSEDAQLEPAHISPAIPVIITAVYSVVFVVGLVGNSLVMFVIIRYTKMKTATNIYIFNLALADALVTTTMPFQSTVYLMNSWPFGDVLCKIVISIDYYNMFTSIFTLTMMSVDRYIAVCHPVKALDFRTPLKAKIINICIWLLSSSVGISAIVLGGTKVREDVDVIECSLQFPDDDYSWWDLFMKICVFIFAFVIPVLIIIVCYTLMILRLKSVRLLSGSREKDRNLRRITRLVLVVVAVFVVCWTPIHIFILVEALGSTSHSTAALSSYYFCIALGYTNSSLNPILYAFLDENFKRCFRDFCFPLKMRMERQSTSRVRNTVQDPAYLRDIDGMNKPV", "assay": "Glo-sensor cAMP assay", "assay_type": "cell-based", "method": "Stimulation by endogenous RF-amide peptides or test compounds for [^35S]-GTPγS binding to membranes from CHO cells expressing human NPFF1R or NPFF2R, were examined as reported. 1.6. Glo-Sensor cAMP Assay cAMP accumulation assay was essentially done as described with the following modifications: HEK293 cells stably expressing cAMP Glosensor-20F were used, with or without additional stable expression of each individual opioid receptor or NPFF1R. The cAMP responses were measured in presence of D-luciferin (1 mM)."}, "[8]": {"conditions": "Table 3a, HEK293-Glo20F-hMOPr cells, read-out: MOPr (cAMP) EC50"}, "[9]": {"conditions": "[125I]-43RFa, read-out: Ki ± SEM GPR103"}, "[10]": {"conditions": "[3H]-PrRP-20, read-out: Ki ± SEM GPR10"}},
  "note": "Like-named read-outs stand apart in the source and are kept apart here. Residues, ends and D or L forms follow the SMILES beside them.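 Wherever MOPr (cAMP) Emax is given: Emax relative to DAMGO as 100%.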",
  "data": [
    {"molecule": "Cc1cc(O)cc(C)c1C[C@H](N)C(=O)N[C@H](CCCNC(=N)N)C(=O)N[C@H]1Cc2ccccc2CN(CCC(=O)N[C@@H](CCCNC(=N)N)C(=O)N[C@@H](Cc2ccccc2)C(N)=O)C1=O", "note": "[KGFF03, H-Dmt-D-Arg-Aba-β-Ala-Arg-Phe-NH2] (HELM PEPTIDE1{[Cc1cc(O)cc(C)c1C[C@H](N)C(=O)[*:2]].[dR].[O=C1[C@@H](N[*:1])Cc2ccccc2CN1CCC(=O)[*:2]].R.F.[am]}$$$$V2.0)", "values": [
      {"measurement": "Ki", "setting": "[1]", "value": "> 10000", "unit": "nM"},
      {"measurement": "Ki", "setting": "[2]", "value": "> 10000", "unit": "nM"},
      {"measurement": "Ki", "setting": "[3]", "value": "289 ± 3", "unit": "nM"},
      {"measurement": "antinociceptive effect on day 1", "setting": "[4]", "value": "full antinociception"},
      {"measurement": "CFA-induced thermal hypersensitivity (basal threshold)", "setting": "[5]", "value": "not the case"},
      {"measurement": "EC50", "setting": "[6]; [8]", "value": "12 ± 2", "unit": "nM"},
      {"measurement": "MOPr-induced G protein activation", "setting": "[6]", "value": "highly potent and fully efficacious"},
      {"measurement": "Emax", "setting": "[6]", "value": "92 ± 1", "unit": "%"},
      {"measurement": "EC50", "setting": "[7]", "value": 95, "unit": "nM"},
      {"measurement": "Emax", "setting": "[7]", "value": "34 ± 11", "unit": "%"}
    ]},
    {"molecule": "Cc1cc(O)cc(C)c1C[C@H](N)C(=O)N[C@H](CCCNC(=N)N)C(=O)N[C@H]1Cc2ccccc2CN(CCC(=O)N[C@@H](CCCN2CCC(Cc3ccccc3)CC2)C(=O)N[C@@H](Cc2ccccc2)C(N)=O)C1=O", "note": "[KGFF09, H-Dmt-D-Arg-Aba-β-Ala-Bpa-Phe-NH2]", "values": [
      {"measurement": "Ki", "setting": "[1]; [9]", "value": 1200, "unit": "nM"},
      {"measurement": "Ki", "setting": "[2]; [10]", "value": "> 10000", "unit": "nM"},
      {"measurement": "Ki", "setting": "[3]", "value": "209 ± 2", "unit": "nM"},
      {"measurement": "basal thermal nociceptive threshold (development of hyperalgesia)", "setting": "[4]", "value": "absent"},
      {"measurement": "decrease in antinociception efficacy (AUC) on day 8 compared to day 1", "setting": "[4]; daily sc. d1-d8, KGOP01 1.8, KGFF03 1.2, KGFF09 7.4 μmol/kg/d", "value": "less than 25%"},
      {"measurement": "antinociceptive effect on day 1", "setting": "[4]", "value": "full antinociception"},
      {"measurement": "CFA-induced thermal hypersensitivity (basal threshold)", "setting": "[5]", "value": "totally reversed after the third injection"},
      {"measurement": "analgesic tolerance after 7 days of chronic administration", "setting": "[5]; in words", "value": "significantly less tolerance"},
      {"measurement": "EC50", "setting": "[6]; Table 3B, read-out: MOPr (cAMP) EC50", "value": "18.2 ± 6.1", "unit": "nM"},
      {"measurement": "EC50", "setting": "[6]; [8]", "value": "18.2 ± 6.1", "unit": "nM"},
      {"measurement": "MOPr-induced G protein activation", "setting": "[6]", "value": "highly potent and fully efficacious"},
      {"measurement": "Emax", "setting": "[6]", "value": "85 ± 2", "unit": "%"},
      {"measurement": "Emax", "setting": "[7]", "value": "15 ± 1", "unit": "%"}
    ]},
    {"molecule": "Cc1cc(O)cc(C)c1C[C@H](N)C(=O)N[C@H](CCCNC(=N)N)C(=O)N[C@H]1Cc2ccccc2CN(CCC(N)=O)C1=O", "note": "[KGOP01, reference compound]", "values": [
      {"measurement": "Ki", "setting": "[1]; [9]", "value": "> 10000", "unit": "nM"},
      {"measurement": "Ki", "setting": "[2]; [10]", "value": "> 10000", "unit": "nM"},
      {"measurement": "Ki", "setting": "[3]", "value": "> 10000", "unit": "nM"},
      {"measurement": "basal thermal nociceptive threshold (development of hyperalgesia)", "setting": "[4]", "value": "significant and progressive decrease"},
      {"measurement": "antinociceptive effect on day 1", "setting": "[4]", "value": "full antinociception"},
      {"measurement": "CFA-induced thermal hypersensitivity (basal threshold)", "setting": "[5]", "value": "not the case"},
      {"measurement": "EC50", "setting": "[6]; MOPr (cAMP) EC50", "value": "0.204 ± 0.05", "unit": "nM"},
      {"measurement": "Emax", "setting": "[6]", "value": "89 ± 2", "unit": "%"},
      {"measurement": "Emax", "setting": "[7]", "value": "18 ± 1", "unit": "%"},
      {"measurement": "EC50", "setting": "[7]; read-out: KOPr (cAMP) EC50", "value": "> 10000", "unit": "nM"}
    ]}
  ]
}
